Measured values from patent US6528532B1, “Urea derivatives as HIV aspartyl protease inhibitors” (Pharmacor Inc., priority 2002, dated 2003).

biological target: HIV protease (Human immunodeficiency virus type 1 group M subtype B, UniProt P04585); assay: Enzymatic (FRET fluorometric) assay for determining the inhibition constant (Ki) of compounds targeting the HIV protease; assay type: biochemical; conditions: FRET substrate (EDANS/DABCYL), equation of Henderson; read-out: Ki
Description: Enzymatic Assay for Determining the Inhibition Constant (Ki) of Synthetic Compounds Targeting the HIV Protease
This is a fluorometric assay based on the cleavage by protease of a substrate carrying a donor group (EDANS) and an acceptor group (DABCYL) on each side of the cleavage site, interacting together through fluorescence resonance energy transfer (FRET) as described by Matayoshi et al. (Science 247:[…], 1990).
After calculation of Vo and Vi, the inhibition constant (Ki) of the compound is determined using the equation of Henderson: [formula]
where Vo=the enzyme's initial velocity
Vi=the enzyme velocity in the presence of the inhibitory compound,
[I]=inhibitor concentration, [S]=substrate concentration,
Km=Michaelis-Menten constant and Kiapp=apparent Ki
Graphs are traced and the Ki determined using GraphPad Prism software v. 3.0.

Point of comparison: `CC(C)CN([C@H](CO)CCCCNC(=O)N(Cc1ccc(C(F)(F)F)cc1)Cc1ccc2c(c1)OCO2)S(=O)(=O)c1ccc(N)cc1` [Example 92, (2S) 2-N-(4-Aminobenzenesulfonyl)-2-N-isobutyl-6-N-[N′-(4-trifluoromethylbenzyl)-N′-piperonylaminocarbonyl]-2,6-diaminohexanol], Ki 2.5 nM. Against it:
- Cc1ccc(S(=O)(=O)N(CC(C)C)[C@@H](CCCCNC(=O)N(C)Cc2ccccc2)C(=O)O)cc1 [Example 40, Nα-Isobutyl-Nα-(4-methylbenzenesulfonyl)-Nε-[(N′-benzyl-N′-methyl)aminocarbonyl]-L-lysine] — 22-fold higher, 55 nM
- COc1ccc(CN(Cc2ccc3c(c2)OCO3)C(=O)NCCCC[C@@H](CO)N(CC(C)C)S(=O)(=O)c2ccc(N)cc2)cc1 [Example 83, (2S) 2-N-(4-Aminobenzenesulfonyl)-2-N-isobutyl-6-N-[N′-(4-methoxybenzyl)-N′-piperonylaminocarbonyl]-2,6-diaminohexanol] — within 1.5-fold, 2.2 nM
- CC(C)CN([C@H](CO)CCCCNC(=O)N(Cc1ccc(F)cc1)Cc1cccnc1)S(=O)(=O)c1ccc(N)cc1 [Example 70, (2S) 2-N-(4-Aminobenzenesulfonyl)-2-N-isobutyl-6-N-[N′-(4-fluorobenzyl)-N′-(3-picolyl)aminocarbonyl]-2,6-diaminohexanol] — 12-fold higher, 30 nM
- CC(C)CN([C@H](CO)CCCCNC(=O)N(Cc1cccc(F)c1)C1CCCCC1)S(=O)(=O)c1ccc(N)cc1 [Example 71, (2S) 2-N-(4-Aminobenzenesulfonyl)-2-N-isobutyl-6-N-[N′-cyclohexyl-N′-(3-fluorobenzyl)aminocarbonyl]-2,6-diaminohexanol] — 94-fold higher, 235 nM
- Cc1ccc(S(=O)(=O)N(CC(C)C)[C@@H](CCCCNC(=O)N(Cc2ccccc2)Cc2ccc([N+](=O)[O-])cc2)C(=O)O)cc1 [Example 56, Nα-Isobutyl-Nα-(4-methylbenzenesulfonyl)-Nε-[N′-benzyl-N′-(4-nitrobenzyl)aminocarbonyl]-L-lysine] — 1.7-fold lower, 1.5 nM
- Cc1ccc(S(=O)(=O)N(CC(C)C)[C@H](CO)CCCCNC(=S)N(Cc2ccccc2)Cc2ccccc2)cc1 [Example 34, (2S) 2-N-Isobutyl-2-N-(4-methylbenzenesulfonyl)-6-N-(N′,N′-dibenzylaminothiocarbonyl)-2,6-diaminohexanol] — 31-fold higher, 78 nM
- Cc1ccc(S(=O)(=O)N(CC(C)C)[C@@H](CCCCNC(=O)N(Cc2ccccc2)Cc2ccccc2)C(=O)O)cc1 [Example 32, Nα-Isobutyl-Nα-(4-methylbenzenesulfonyl)-Nε-(N′,N′-dibenzylaminocarbonyl)-L-lysine] — 2.9-fold higher, 7.2 nM
- CC(C)CCN([C@H](CO)CCCCNC(=O)N(Cc1ccc([N+](=O)[O-])cc1)Cc1ccc2c(c1)OCO2)S(=O)(=O)c1ccc(N)cc1 [Example 89, (2S) 2-N-(4-Aminobenzenesulfonyl)-2-N-(3-methylbutyl)-6-N-[N′-(4-nitrobenzyl)-N′-piperonylaminocarbonyl]-2,6-diaminohexanol] — within 1.5-fold, 2.2 nM
- CC(C)CN([C@@H](CCCCNC(=O)N(Cc1ccccc1)Cc1cccnc1)C(=O)O)S(=O)(=O)c1ccc(N)cc1 [Example 47, Nα-(4-Aminobenzenesulfonyl)-Nα-isobutyl-Nε-[N′-benzyl-N′-(3-picolyl)aminocarbonyl]-L-lysine] — within 1.5-fold, 2.4 nM
- CC(C)CN([C@@H](CCCCNC(=O)N(Cc1ccccc1)Cc1ccccc1)C(=O)O)S(=O)(=O)c1ccc(N)cc1 [Example 36, Nα-(4-Aminobenzenesulfonyl)-Nα-isobutyl-Nε-(N′,N′-dibenzylaminocarbonyl)-L-lysine] — within 1.5-fold, 1.8 nM
- Cc1ccc(S(=O)(=O)N(CC(C)C)[C@@H](CCCCNC(=O)N(Cc2ccccc2)Cc2ccccc2[N+](=O)[O-])C(=O)O)cc1 [Example 54, Nα-Isobutyl-Nα-(4-methylbenzenesulfonyl)-Nε-[N′-benzyl-N′-(2-nitrobenzyl)aminocarbonyl]-L-lysine] — 2.8-fold lower, 0.9 nM
- Cc1ccc(S(=O)(=O)N(CC(C)C)[C@H](CO)CCCCNC(=O)N(Cc2ccccc2)Cc2ccc(N)cc2)cc1 [Example 64, (2S) 2-N-Isobutyl-2-N-(4-methylbenzenesulfonyl)-6-N-[N′-(4-aminobenzyl)-N′-benzylaminocarbonyl]-2,6-diaminohexanol] — 8.4-fold higher, 21 nM
- CC(C)CN([C@H](CO)CCCCNC(=O)N(Cc1ccc(C(F)(F)F)cc1)Cc1cccc2c1OCO2)S(=O)(=O)c1ccc(N)cc1 [Example 90, (2S) 2-N-(4-Aminobenzenesulfonyl)-2-N-isobutyl-6-N-[N′-(4-trifluoromethylbenzyl)-N′-(2,3-methylenedioxy)benzylaminocarbonyl]-2,6-diaminohexanol] — 3.6-fold higher, 8.9 nM
- Cc1ccc(S(=O)(=O)N(CC(C)C)[C@H](CO)CCCCNC(=O)N(Cc2ccccc2)Cc2cccc(N)c2)cc1 [Example 63, (2S) 2-N-Isobutyl-2-N-(4-methylbenzenesulfonyl)-6-N-[N′-(3-aminobenzyl)-N′-benzylaminocarbonyl]-2,6-diaminohexanol] — 22-fold higher, 54 nM
- Cc1ccc(S(=O)(=O)N(CC(C)C)[C@@H](CCCCNC(=S)NCCc2c[nH]c3ccccc23)C(=O)O)cc1 [Example 15] — 44-fold higher, 111 nM
- CC(C)CN([C@H](CO)CCCCNC(=O)N(Cc1ccsc1)Cc1ccc2c(c1)OCO2)S(=O)(=O)c1ccc(N)cc1 [Example 81, (2S) 2-N-(4-Aminobenzenesulfonyl)-2-N-isobutyl-6-N-[N′-(3-thiophenemethyl)-N′-piperonylaminocarbonyl]-2,6-diaminohexanol] — 2.5-fold higher, 6.3 nM
- CC(C)CN([C@@H](CCCCNC(=O)NCc1ccccc1)C(=O)O)S(=O)(=O)c1ccc(N)cc1 [Example 18, Nα-(4-Aminobenzenesulfonyl)-Nα-isobutyl-Nε-benzylaminocarbonyl-L-lysine] — 80-fold higher, 200 nM
- COc1ccc(CN(Cc2ccncc2)C(=O)NCCCC[C@@H](CO)N(CC(C)C)S(=O)(=O)c2ccc(N)cc2)cc1 [Example 53, (2S) 2-N-(4-Aminobenzenesulfonyl)-2-N-isobutyl-6-N-[N′-(4-methoxybenzyl)-N′-(4-picolyl)aminocarbonyl]-2,6-diaminohexanol] — 36-fold higher, 90 nM
- CC(C)CN([C@H](CO)CCCCNC(=O)N(Cc1ccccc1)Cc1ccc(F)cc1)S(=O)(=O)c1ccc(N)cc1 [Example 68, (2S) 2-N-(4-Aminobenzenesulfonyl)-2-N-isobutyl-6-N-[N′-benzyl-N′-(4-fluorobenzyl)aminocarbonyl]-2,6-diaminohexanol] — within 1.5-fold, 3.3 nM
- Cc1ccc(S(=O)(=O)N(CC(C)C)[C@@H](CCCCNC(=O)N(Cc2ccccc2)Cc2cccnc2)C(=O)O)cc1 [Example 42, Nα-Isobutyl-Nα-(4-methylbenzenesulfonyl)-Nε-[N′-benzyl-N′-(3-picolyl)aminocarbonyl]-L-lysine] — within 1.5-fold, 3.7 nM
- Cc1ccc(S(=O)(=O)N(CC(C)C)[C@@H](CCCCNC(=O)NCc2ccccc2)C(=O)O)cc1 [Example 2, Nα-Isobutyl-Nα-(4-methylbenzenesulfonyl)-Nε-(benzylaminocarbonyl)-L-lysine] — 13-fold higher, 32 nM
- CC(C)CN([C@H](CO)CCCCNC(=O)N(Cc1ccccc1)Cc1ccccc1)S(=O)(=O)c1ccc(N)cc1 [Example 41, (2S) 2-N-(4-Aminobenzenesulfonyl)-2-N-isobutyl-6-N-(N′,N′-dibenzylaminocarbonyl)-2,6-diaminohexanol] — 4.8-fold higher, 12 nM
